Measurements from patent publication US12378224B2 (Dong-A Socio Holdings Co., Ltd., priority 2016, dated 2025).

Experiments:
[1] = target: human c-MER catalytic domain (Homo sapiens (Human), UniProt Q12866); assay: TR-FRET Kinase Activity Biochemical Assay (LanthaScreen); details: 10 uM ATP, 1 hour, kinase not given
Description: For the SAR (structure-activity relationship) and compound screening, LanthaScreen™ TR-FRET (Time-Resolved fluorescence energy transfer) assay was employed using the phospho-tyrosine specific Terbium (Tb)-labelded antibody with a fluorescein labeled poly-GT (glutamate-tyrosine) as a substrate. Upon excitation at 340 nm by UV, the energy from Tb donor of the antibody is transferred to the fluorescein of the phosphorylated poly GT substrate, and fluorescein emits light at 520 nm. The ratio between the intensity of […] was used to quantify the level of kinase activity. The recombinant proteins of human c-MER and AXL catalytic domains, Fluorescein-labeled poly-GT substrate, Tb-labeled anti-phosphorylated tyrosine antibodies, the kinase assay buffer, and 0.5M EDTA solution were purchased (Life technologies, USA). The TR-FRET assays were carried out in the white low volume 384-well plate (Corning, USA). […] 10 mM EDTA was added to terminate the enzyme reaction, and the level of phosphorylation of poly-GT substrate was determined following 30 min incubation with 2 nM Tb-labeled antibody. The fluorescence intensity was measured with Envision™ plate reader (PerkinElmer, USA).

human MER (528-end) = human MER (528-end) (Homo sapiens (Human), UniProt Q12866); assay: HTRF Kinase Activity Biochemical Assay (KinEASE-TK); details: 10 uM ATP
How it was run: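 Recombinant human MER (528-end) phosphorylated biotin-TK peptide substrate, 1 h at room temperature. Reaction stopped with detection buffer containing 0.375 nM Eu3+-cryptate anti-TK antibody and 0.062 uM streptavidin-XL665, 1 h further. Activity taken as HTRF ratio 665/620 nm ×10,000, 340 nm excitation.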

Sequence of human c-MER catalytic domain (Q12866 587-858): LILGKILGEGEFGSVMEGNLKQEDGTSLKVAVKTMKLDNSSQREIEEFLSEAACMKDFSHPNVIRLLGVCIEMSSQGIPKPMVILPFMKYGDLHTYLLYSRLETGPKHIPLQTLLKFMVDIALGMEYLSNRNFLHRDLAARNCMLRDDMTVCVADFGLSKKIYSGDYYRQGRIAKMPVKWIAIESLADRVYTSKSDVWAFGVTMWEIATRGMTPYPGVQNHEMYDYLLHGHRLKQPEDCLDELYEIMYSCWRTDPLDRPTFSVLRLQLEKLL
Sequence of human MER (528-end) (Q12866 528-999 limits assumed): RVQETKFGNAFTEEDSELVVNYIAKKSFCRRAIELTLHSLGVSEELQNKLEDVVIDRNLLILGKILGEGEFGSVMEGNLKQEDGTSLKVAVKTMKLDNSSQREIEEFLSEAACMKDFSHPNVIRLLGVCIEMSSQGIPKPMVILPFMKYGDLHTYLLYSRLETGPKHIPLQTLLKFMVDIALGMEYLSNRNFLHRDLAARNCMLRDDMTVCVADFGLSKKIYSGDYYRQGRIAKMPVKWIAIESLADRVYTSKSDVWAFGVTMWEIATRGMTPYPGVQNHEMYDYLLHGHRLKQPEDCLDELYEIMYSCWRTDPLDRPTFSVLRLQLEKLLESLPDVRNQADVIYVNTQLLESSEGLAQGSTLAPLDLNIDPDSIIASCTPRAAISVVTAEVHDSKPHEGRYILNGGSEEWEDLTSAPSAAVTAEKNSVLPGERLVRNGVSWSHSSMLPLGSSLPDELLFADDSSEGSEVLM

Cn1cc(-c2cnc(N)c(C(=O)N[C@@H]3CCN(C(=O)c4ccc(-c5ccc(OC6CCNC6)cc5)cc4)C3)c2)cn1 (stereo partly drawn) [Example 532, 2-amino-5-(1-methyl-1H-pyrazol-4-yl)-N-((3R)-1-(4′-(pyrrolidin-3-yloxy)-[1,1′-biphenyl]-4-carbonyl)pyrrolidin-3-yl)nicotinamide]
IC50 [1]: 100 to 1000 nM

Cn1cc(-c2cnc(N)c(C(=O)N[C@@H]3CCN(C(=O)Oc4cccc(-c5ccc(CNCC(=O)O)cc5)c4)C3)c2)cn1 [Example 326, (R)-((3′-((3-(2-amino-5-(1-methyl-1H-pyrazol-4-yl)nicotinamido)pyrrolidine-1-carbonyl)oxy)-[1,1′-biphenyl]-4-yl)methyl)glycine]
IC50 [1]: 100 to 1000 nM

Cn1cc(-c2cnc(N)c(C(=O)N[C@@H]3CCN(C(=O)Nc4cccnc4)C3)c2)cn1 [Example 13, (R)-2-amino-5-(1-methyl-1H-pyrazol-4-yl)-N-(1-(pyridin-3-ylcarbamoyl)pyrrolidin-3-yl)nicotinamide]
IC50 [1]: > 1000 nM

Cn1cc(-c2cnc(N)c(C(=O)N[C@@H]3CCN(C(=O)c4ccc(-c5ccoc5)cc4)C3)c2)cn1 [Example 487, (R)-2-amino-N-(1-(4-(furan-3-yl)benzoyl)pyrrolidin-3-yl)-5-(1-methyl-1H-pyrazol-4-yl)nicotinamide]
IC50 [1]: 100 to 1000 nM

Cn1cc(-c2cnc(N)c(C(=O)N[C@@H]3CCN(C(=O)c4cccc(-c5cccc(N6CCCCC6)c5)c4)C3)c2)cn1 [Example 477, (R)-2-amino-5-(1-methyl-1H-pyrazol-4-yl)-N-(1-(3′-(piperidin-1-yl)-[1,1′-biphenyl]-3-carbonyl)pyrrolidin-3-yl)nicotinamide]
IC50 [1]: > 1000 nM

CN1CCN(CCc2cccc(-c3cccc(C(=O)N4CC[C@@H](NC(=O)c5cc(-c6cnn(C)c6)cnc5N)C4)c3)c2)CC1 [Example 453, (R)-2-amino-5-(1-methyl-1H-pyrazol-4-yl)-N-(1-(3′-(2-(4-methylpiperazin-1-yl)ethyl)-[1,1′-biphenyl]-3-carbonyl)pyrrolidin-3-yl)nicotinamide]
IC50 [1]: > 1000 nM

Cn1cc(-c2cnc(N)c(C(=O)N[C@@H]3CCN(C(=O)Oc4cccc(-c5ccc(CN6CC[C@H](N)C6)cc5)c4)C3)c2)cn1 [Example 331, 4′-(((S)-3-aminopyrrolidin-1-yl)methyl)-[1,1′-biphenyl]-3-yl (R)-3-(2-amino-5-(1-methyl-1H-pyrazol-4-yl)nicotinamido)pyrrolidine-1-carboxylate]
IC50 [1]: 10 to 100 nM

COc1ccc(-c2cnc(N)c(C(=O)N[C@@H]3CCN(C(=O)c4ccc(-c5ccccc5)cc4)C3)c2)cc1 [Example 555, (R)—N-(1-([1,1′-biphenyl]-4-carbonyl)pyrrolidin-3-yl)-2-amino-5-(4-methoxyphenyl)nicotinamide]
IC50 [1]: 100 to 1000 nM

Cn1cc(-c2cnc(N)c(C(=O)N[C@@H]3CCN(C(=O)c4nc5cc(Cl)ccc5o4)C3)c2)cn1 [Example 498, (R)-2-amino-N-(1-(5-chlorobenzo[d]oxazole-2-carbonyl)pyrrolidin-3-yl)-5-(1-methyl-1H-pyrazol-4-yl)nicotinamide]
IC50 [1]: > 1000 nM

CN(C)c1ccc(Oc2ccc(-c3ccc(C(=O)N4CC[C@@H](NC(=O)c5cc(-c6cnn(C)c6)cnc5N)C4)cc3)cc2)cc1 [Example 529, (R)-2-amino-N-(1-(4′-(4-(dimethylamino)phenoxy)-[1,1′-biphenyl]-4-carbonyl)pyrrolidin-3-yl)-5-(1-methyl-1H-pyrazol-4-yl)nicotinamide]
IC50 [1]: 10 to 100 nM

Cn1cc(-c2cnc(N)c(C(=O)N[C@@H]3CCN(C(=O)Oc4ccc5cc(OC6CCNCC6)ccc5c4)C3)c2)cn1 [Example 302, 6-(piperidin-4-yloxy)naphthalen-2-yl (R)-3-(2-amino-5-(1-methyl-1H-pyrazol-4-yl)nicotinamido)pyrrolidine-1-carboxylate]
IC50 [1]: 10 to 100 nM

CN(C)CCCNc1ncc(-c2cnn(C)c2)cc1C(=O)N[C@@H]1CCN(C(=O)c2ccc(-c3ccc(OCCCN(C)C)cc3)cc2)C1 [Example 848, (R)—N-(1-(4′-(3-(dimethylamino)propoxy)-[1,1′-biphenyl]-4-carbonyl)pyrrolidin-3-yl)-2-((3-(dimethylamino)propyl)amino)-5-(1-methyl-1H-pyrazol-4-yl)nicotinamide]
IC50 [1]: 100 to 1000 nM

Cn1cc(-c2cnc(N)c(C(=O)N[C@@H]3CCN(C(=O)Oc4cccc(-c5ccc(CN6CCCCC6)cc5)c4)C3)c2)cn1 [Example 334, 4′-(piperidin-1-ylmethyl)-[1,1′-biphenyl]-3-yl (R)-3-(2-amino-5-(1-methyl-1H-pyrazol-4-yl)nicotinamido)pyrrolidine-1-carboxylate]
IC50 [1]: 100 to 1000 nM

Cn1cc(-c2cnc(N)c(C(=O)N[C@@H]3CCN(C(=O)c4ccc(CCBr)cc4)C3)c2)cn1 [Example 413, (R)-2-amino-N-(1-(4-(2-bromoethyl)benzoyl)pyrrolidin-3-yl)-5-(1-methyl-1H-pyrazol-4-yl)nicotinamide]
IC50 [1]: > 1000 nM

Cn1cc(-c2cnc(N)c(C(=O)N[C@@H]3CCN(C(=O)c4ccc(-c5ccc(/C=C/C(=O)O)cc5)cc4)C3)c2)cn1 [Example 677, (R,E)-3-(4′-(3-(2-amino-5-(1-methyl-1H-pyrazol-4-yl)nicotinamido)pyrrolidine-1-carbonyl)-[1,1′-biphenyl]-4-yl) acrylic acid]
IC50 [1]: 10 to 100 nM

Cn1cc(-c2cnc(N)c(C(=O)N[C@@H]3CCN(C(=O)c4ccc(-c5cccc(C=O)c5)cc4)C3)c2)cn1 [Example 382, (R)-2-amino-N-(1-(3′-formyl-[1,1′-biphenyl]-4-carbonyl)pyrrolidin-3-yl)-5-(1-methyl-1H-pyrazol-4-yl)nicotinamide]
IC50 [1]: 10 to 100 nM

Cn1cc(-c2cnc(N)c(C(=O)N[C@@H]3CCN(C(=O)Oc4cccc(-c5ccc(CN6CC[C@@H](N)C6)cc5)c4)C3)c2)cn1 [Example 330, 4′-(((R)-3-aminopyrrolidin-1-yl)methyl)-[1,1′-biphenyl]-3-yl (R)-3-(2-amino-5-(1-methyl-1H-pyrazol-4-yl)nicotinamido)pyrrolidine-1-carboxylate]
IC50 [1]: 10 to 100 nM

CC(=O)N1CCC(n2cc(-c3cnc(N)c(C(=O)N[C@@H]4CCN(Cc5ccccc5)C4)c3)cn2)CC1 [Example 240, (R)-5-(1-(1-acetylpiperidin-4-yl)-1H-pyrazol-4-yl)-2-amino-N-(1-benzylpyrrolidin-3-yl)nicotinamide]
IC50 [1]: 100 to 1000 nM

COc1cccc(CN2CC[C@@H](NC(=O)c3cc(-c4cnn(C)c4)cnc3N)C2)c1OC [Example 217, (R)-2-amino-N-(1-(2,3-dimethoxybenzyl)pyrrolidin-3-yl)-5-(1-methyl-1H-pyrazol-4-yl)nicotinamide]
IC50 [1]: 100 to 1000 nM

Cn1cc(-c2cnc3[nH]nc(N[C@@H]4CCN(C(=O)c5ccc(-c6ccc7c(c6)CCCN7)cc5)C4)c3c2)cn1 [Example 790, (R)-(3-((5-(1-methyl-1H-pyrazol-4-yl)-1H-pyrazolo[3,4-b]pyridin-3-yl)amino)pyrrolidin-1-yl)(4-(1,2,3,4-tetrahydroquinolin-6-yl)phenyl)methanone]
IC50 [1]: 10 to 100 nM

Cn1cc(-c2cnc(N)c(C(=O)N[C@@H]3CCN(C(=O)c4ccc(-c5ccccc5C=O)cc4)C3)c2)cn1 [Example 355, (R)-2-amino-N-(1-(2′-formyl-[1,1′-biphenyl]-4-carbonyl)pyrrolidin-3-yl)-5-(1-methyl-1H-pyrazol-4-yl)nicotinamide]
IC50 [1]: 10 to 100 nM

Cn1cc(-c2cnc(N)c(C(=O)N[C@@H]3CCN(C(=O)Oc4cccc(-c5cnn(Cc6ccccc6)c5)c4)C3)c2)cn1 [Example 283, 3-(1-benzyl-1H-pyrazol-4-yl)phenyl (R)-3-(2-amino-5-(1-methyl-1H-pyrazol-4-yl)nicotinamido)pyrrolidine-1-carboxylate]
IC50 [1]: 100 to 1000 nM

Cn1cc(-c2cnc3[nH]nc(N[C@@H]4CCN(C(=O)c5ccc(-c6ccc(OC7CCNCC7)cc6)cc5)C4)c3c2)cn1 [Example 792, (R)-(3-((5-(1-methyl-1H-pyrazol-4-yl)-1H-pyrazolo[3,4-b]pyridin-3-yl)amino)pyrrolidin-1-yl)(4′-(piperidin-4-yloxy)-[1,1′-biphenyl]-4-yl)methanone]
IC50 [1]: < 10 nM

CN(C)CCCOc1ccc2cc(OC(=O)N3CC[C@@H](NC(=O)c4cc(-c5cnn(C)c5)cnc4N)C3)ccc2c1 [Example 301, 6-(3-(dimethylamino)propoxy)naphthalen-2-yl (R)-3-(2-amino-5-(1-methyl-1H-pyrazol-4-yl)nicotinamido)pyrrolidine-1-carboxylate]
IC50 [1]: 100 to 1000 nM

CC(c1ccc(Cl)c(Cl)c1)N1CC[C@@H](NC(=O)c2cc(-c3cnn(C4CCNCC4)c3)cnc2N)C1 (stereo partly drawn) [Example 150, 2-amino-N-((3R)-1-(1-(3,4-dichlorophenyl)ethyl)pyrrolidin-3-yl)-5-(1-(piperidin-4-yl)-1H-pyrazol-4-yl)nicotinamide]
IC50 (human MER (528-end)): > 1000 nM

Cn1cc(-c2cnc(N)c(C(=O)N[C@@H]3CCN(C(=O)Cc4ccc(-c5ccccc5)cc4)C3)c2)cn1 [Example 422, (R)—N-(1-(2-([1,1′-biphenyl]-4-yl)acetyl)pyrrolidin-3-yl)-2-amino-5-(1-methyl-1H-pyrazol-4-yl)nicotinamide]
IC50 (human MER (528-end)): > 1000 nM

Cn1cc(-c2cnc(N)c(C(=O)N[C@H]3CCN(C(=O)c4cccc(-c5ccccc5)c4)C3)c2)cn1 [Example 345, (S)—N-(1-([1,1′-biphenyl]-3-carbonyl)pyrrolidin-3-yl)-2-amino-5-(1-methyl-1H-pyrazol-4-yl)nicotinamide]
IC50 (human MER (528-end)): > 1000 nM
